“And” between values parts separate entries of the source, which are not always exact repeats. Equal values may be shown once. Read-outs that look alike come from different tables or passages of the source.
Assays:
[1] = Parallel artificial membrane permeability assay (PAMPA); conditions: pH 7.4
Experimental: The test samples (0.05 mM test article in pH 7.4 buffer with 0.5% DMSO) were added in the donor compartment and were stirred using the Gutbox technology (Pion Inc.) to reduce the aqueous boundary layer. The test article concentrations in the donor and acceptor compartments were measured using a UV plate reader (Nano Quant, Infinite 200 PRO, Tecan Inc., Männedorf, Switzerland).

[2] = Plasma protein binding, equilibrium dialysis (RED device); type: in vitro ADME, human; conditions: read-out: Fup (unbound fraction in plasma)
Experimental: Plasma protein binding was determined with equilibrium dialysis method using the Rapid Equilibration Dialysis (RED) device (Thermo Fisher Catalog # 90006). The assay was performed using manufacturer’s procedures. Briefly, plasma spiked with a test compound (5 µM) was added to the plasma chamber of the RED device. Blank potassium phosphate buffer (100 mM) was added to the buffer chamber of the RED device and the plate was incubated at 37°C. Aliquots of the buffer and the plasma were taken at 0 and 4 h, and the concentrations of free and bound test compounds were determined using the previously described LC-MS method ([Shah et al., 2016]).

[3] = Incubation in liver cytosolic fractions; type: in vitro ADME; conditions: mouse, hamster, human, read-out: in vitro metabolic half-life (t1/2)
Experimental: The in vitro metabolic stability of PDN was determined in the plasma and liver fractions of three species. […] Based on the formation of Nc in plasma, about 51%, 16%, and 10% of depleted PDN were converted to Nc in mouse, hamster, and human plasma, respectively. PDN was also metabolized in the liver microsomes. However, due to the fast metabolism of formed Nc in liver microsomes (sequential metabolism), only a trace amount of Nc was detected after incubation of PDN. Therefore, the metabolism kinetics of PDN was investigated to obtain the Vmax, in vitro, app and Km values of PDN depletion (Table 3).

[4] = Hamster PK and lung concentration study (non-compartmental analysis); conditions: for half-life: t1/2 Observed; for Tmax: Tmax Observed
Experimental: For the IV group, a single bolus IV dose of 3 mg/kg of PDN was administered to 24 hamsters (3 hamsters per time point). For the PO group, a dose of 30 mg/kg of PDN was administered via oral gavage to 21 hamsters (3 hamsters per time point). The formulation used for both IV and PO was 20% HP-β-CD in water (0.6 mg/mL PDN for IV and 3 mg/mL for PO). All dosing solutions were freshly prepared on the day of dosing. […] After collection, tissues were weighed and frozen. All blood samples were centrifuged at 4°C to obtain plasma. Plasma samples were transferred to tubes preloaded with NaF (final concentration at 5 mM in 200 µL plasma) and stored at −80°C until analysis.
For fat tissue, an additional 3-fold volume of acetonitrile was added to the water homogenate and was vortexed in a shaker for another 30 min.
A 10 μ aliquot of samples, blank controls (blank plasma or tissue homogenates), quality controls (QC), and standards were added into 200 μ acetonitrile solution with 100 ng/mL tolbutamide (internal standard, IS). All samples were then thoroughly shaken for 5 min to precipitate proteins. The samples were centrifuged at 3000 rpm and 4°C for 30 min. The supernatant was injected for UPLC-MS/MS analysis.
The mobile phase consisted of 0.1% formic acid in water (A) and 0.1% formic acid in acetonitrile (B), the flow rate was 600 μL/min. […] All analyses were carried out using a Waters Acquity I-Class UPLC interfaced with a Waters Xevo TQ-S mass spectrometer. The mass spectrometer multiple reaction monitoring (MRM) experiment was operated with an ESI source at negative mode with spray voltage of 1 kV, and temperature of 600°C. Both Q1 and Q3 were set at unit resolution. […] The correlation coefficients of the calibration curves were all greater than 0.99. […] The linear range, precision and accuracy of QCs in various tissues and plasma are shown in Supplementary Table S1 and Supplementary Table S2.
The area under the concentration vs. time curve (AUC) was calculated using the linear trapezoidal method. The terminal rate constant (λ) was obtained from the slope of at least three data points of the apparent terminal phase of the log linear concentration vs. time curve. AUC0–∞ was estimated as the sum of the AUC0–t (where t is the time of the last measurable concentration) and Ct/λ. […] Bioavailability (F) was calculated using ratios of dose-normalized AUC of PO and IV administration.

[5] = PBPK model (GastroPlus): simulation and model parameters incl. permeability surface product and scaled metabolic kinetics, hamster; conditions: for Liver Vmax / Plasma k: in vivo (scaled)
Experimental: CL in vitro,app expressed as mL/min/mg microsomes were scaled to the predicted CLintrinsic using scaling factor (SF), microsome level and liver weight as indicated below: CLintrinsic=CLin vitro,app×SF×liver weight×microsome level per gram liver
All modeling and simulation were carried out using GastroPlus version 9.5 (Simulations Plus Inc., CA). Physiochemical parameters including blood-to-plasma ratio (Rbp), pKa, and logP were predicted by ADMET predictor (Simulations Plus Inc., CA). Physiologies of all species, including organ weights, volumes, tissue compositions, and blood perfusion rates, were generated by the program’s internal module. Tissue intracellular unbound fractions were generated by GastroPlus based on predicted or experimentally determined physiochemical and chemical-biological parameters including pKa, logP, plasma unbound fractions (Fup), Rbp, solubility, and PAMPA permeability. The PBPK model structure is illustrated in Figure 2 and its parameters are summarized in Supplementary Tables S3–6. The default absorption and dissolution model was applied and effective intestine permeability was predicted by a built-in correlation from the experimental PAMPA permeability result. Parameters including partition coefficients in tissue (Kp), CLintrinsic, and permeability surface area product (PStc) were estimated by fitting the model to experimental data using the optimization module in GastroPlus with objective function weights at 1/(y + ŷ)^2, where y is the observed value and ŷ is the predicted value.
Experimental measurements of hamster plasma pharmacokinetics and lung concentrations were used in the model validation.

[6] = Metabolic stability and biotransformation in liver microsomes; conditions: for Liver Vmax: in vitro
Experimental: The incubation was carried out at 37°C for 15, 30, and 60 min. The reaction in plasma or liver microsomes was quenched by adding 200 μL of cold acetonitrile (containing 100 ng/mL tolbutamide as internal standard).
The mc was the microsome concentration used in the incubation (0.5 mg/mL). The substrate disappearance half-life (t1/2) was estimated by regression analysis of the semi-logarithmic (ln Conc vs. time) plots. […] The Vmax, in vitro,app, PDN-total and Km for PDN depletion in liver microsomes were estimated by the Michaelis-Menten model using GraphPad Prism version 8.

[7] = male, LVG golden Syrian, hamster, in vivo, iv, 3 mg/kg
[8] = male, LVG golden Syrian, hamster, in vivo, po, 30 mg/kg
[9] = male, LVG golden Syrian, hamster, in vivo, po, 30 mg/kg, hamsters, PO 30 mg/kg PDN, lung
[10] = male, LVG golden Syrian, hamster, in vivo, po, 30 mg/kg, hamsters, PO 30 mg/kg PDN, plasma

SMILES: O=C(Nc1ccc([N+](=O)[O-])cc1Cl)c1cc(Cl)ccc1OC(=O)N1CCNCC1 [PDN]
- Papp at 0.05 mM [1]: > 100 ×10⁻⁶ cm/s
- fraction unbound at 4 h, 5 µM ([2]; human and rodent (rodent predicted), rodent (predicted) and human plasma): 0.12 to 0.15
- fraction unbound at 4 h, 5 µM ([2]; human, human plasma, experimental): 0.152
- half-life [3]: > 2 h
- AUC0-∞ Observed ([4]; hamsters, IV 3 mg/kg PDN, lung): 45600 (4266) h*ng/g
- AUC0-∞ Observed ([4]; hamsters, PO 30 mg/kg PDN, lung): 462000 (28500) h*ng/g
- t1/2 Observed ([4]; hamsters, PO 30 mg/kg PDN, plasma, 30 mg/kg): 1.8 (0.13) h
- AUC(0-inf) [4, 7]: 631 ng·h/mL
- Kp [4, 7]: 72
- Vd [4, 7]: 0.74 L
- clearance [4, 7]: 8 mL/min
- half-life ([4]; male, LVG golden Syrian, hamster, in vivo, iv, 3 mg/kg, hamsters, IV 3 mg/kg PDN, lung): 1.1 h
- half-life ([4]; male, LVG golden Syrian, hamster, in vivo, iv, 3 mg/kg, hamsters, IV 3 mg/kg PDN, plasma): 1.1 h
- AUC(0-inf) [4, 8]: 4320 ng·h/mL
- CL/F [4, 8]: 11.5 mL/min
- Cmax [4, 8]: 98000 ng/g and 1060 ng/mL
- Kp [4, 8]: 107
- Vd/F [4, 8]: 1.78 L
- bioavailability [4, 8]: ~64%
- Tmax [4, 9]: 1 h
- Tmax [4, 10]: 0.5 h
- half-life [4, 9]: 2.3 h
- half-life [4, 10]: ~1.8 h
- Liver Vmax ([5]; conversion to Nc): 0.0130 mg/s/mg microsomes
- Plasma k ([5]; conversion to Nc): 0.0052 s⁻¹
- Gut Vmax ([5]; conversion to Nc, in vivo, predicted from in vitro liver parameters): 0.0004 mg/s/mg microsomes
- Liver Vmax ([5]; conversion to Others): 0.1649 mg/s/mg microsomes
- Plasma k ([5]; conversion to Others): 0.0189 s⁻¹
- Liver Vmax ([6]; conversion to Nc, mouse): 0.00095 mg/s/mg microsomes
- Gut Vmax ([6]; conversion to Nc, mouse, in vitro (in vitro liver parameters)): 0.00095 mg/s/mg microsomes
- Liver Vmax ([6]; conversion to Others, mouse): 0.1484 mg/s/mg microsomes
- Vmax in vitro,app, PDN-total ([6]; mouse liver microsomes): 1.327 ± 0.106 nmol/min/mg
- Km ([6]; mouse, pH 7.4): 20.2 ± 3.31 µM
